Where two headings read alike, the source gives them in different places.
Key:
[1] = tested on: CaM76–148, sites III and IV; type: binding, mammalian; conditions: for increase in calcium-binding affinity (more favorable than without peptide) / ΔΔG2^app = ΔG2^app(CaM + Peptide) − ΔG2 (CaM Alone): 2 eq peptide
[2] = tested on: CaM1–148, sites III and IV; type: binding, mammalian; conditions: for increase in calcium-binding affinity (more favorable than without peptide) / ΔΔG2^app = ΔG2^app(CaM + Peptide) − ΔG2 (CaM Alone): 2 eq peptide, sites III and IV; for effect of N-domain on calcium-binding affinity of the C-domain: CaM1–148 vs CaM76–148, with 2 eq peptide
CaM1–148, sites I and II = type: binding, mammalian; conditions: for increase in calcium-binding affinity (more favorable than without peptide) / ΔΔG2^app = ΔG2^app(CaM + Peptide) − ΔG2 (CaM Alone): 2 eq peptide, sites I and II
CaM1–80 (CaM N-domain) = CaM1–80 (CaM N-domain) (Homo sapiens, UniProt P0DP23); type: binding, mammalian; conditions: for ΔG (calcium-saturated): 10 mM CaCl2; for ΔG (calcium-saturated) / ΔG (apo): free energy corresponding to estimated Kd, 22 °C; for Fold Change = (Kd, Apo)/(Kd, Ca^2+): apo vs calcium-saturated; for abundance of the apo CaM-peptide complex: calculated, start of calcium titration, 6 μM CaM1–80 with 2 eq (12 μM) peptide
[3] = molecular target: CaM1–148 (full-length calmodulin) (Homo sapiens, UniProt P0DP23); type: binding, mammalian; conditions: for ΔG (calcium-saturated): 10 mM CaCl2; for ΔG (calcium-saturated) / ΔG (apo): free energy corresponding to estimated Kd, 22 °C; for Fold Change = (Kd, Apo)/(Kd, Ca^2+): apo vs calcium-saturated; for abundance of the apo CaM-peptide complex: calculated, start of calcium titration, 6 μM CaM1–148 with 2 eq (12 μM) peptide
full-length CaM = conditions: absence of magnesium, ref [46]; cited from earlier work
CaM1–80, sites I and II = type: binding, mammalian; conditions: 2 eq peptide
CaM76–148 (CaM C-domain) = CaM76–148 (CaM C-domain) (Homo sapiens, UniProt P0DP23); type: binding, mammalian; conditions: for ΔG (calcium-saturated): 10 mM CaCl2; for ΔG (calcium-saturated) / ΔG (apo): free energy corresponding to estimated Kd, 22 °C; for Fold Change = (Kd, Apo)/(Kd, Ca^2+): apo vs calcium-saturated; for abundance of the apo CaM-peptide complex: calculated, start of calcium titration, 6 μM CaM76–148 with 2 eq (12 μM) peptide
[4] = CaM1–148 with 2 eq peptide (Fig. 5A)

Substance	increase in calcium-binding affinity (more favorable than without peptide) [1] [kcal/mol]	ΔΔG2^app = ΔG2^app(CaM + Peptide) − ΔG2 (CaM Alone) [1] [kcal/mol]	increase in calcium-binding affinity (more favorable than without peptide) [2] [kcal/mol]	ΔΔG2^app = ΔG2^app(CaM + Peptide) − ΔG2 (CaM Alone) [2] [kcal/mol]	effect of N-domain on calcium-binding affinity of the C-domain [2]	increase in calcium-binding affinity (more favorable than without peptide) (CaM1–148, sites I and II) [kcal/mol]	ΔΔG2^app = ΔG2^app(CaM + Peptide) − ΔG2 (CaM Alone) (CaM1–148, sites I and II) [kcal/mol]	ΔG (calcium-saturated) (CaM1–80 (CaM N-domain)) [kcal/mol]	Fold Change = (Kd, Apo)/(Kd, Ca^2+) (CaM1–80 (CaM N-domain))	ΔG (apo) (CaM1–80 (CaM N-domain); apo) [kcal/mol]	abundance of the apo CaM-peptide complex (CaM1–80 (CaM N-domain))	ΔG (calcium-saturated) [3] [kcal/mol]	Fold Change = (Kd, Apo)/(Kd, Ca^2+) [3]	ΔG (apo) [3] [kcal/mol]	abundance of the apo CaM-peptide complex [3]	increase in calcium-binding affinity (more favorable than without peptide) (CaM1–80, sites I and II) [kcal/mol]	ΔΔG2^app = ΔG2^app(CaM + Peptide) − ΔG2 (CaM Alone) (CaM1–80, sites I and II) [kcal/mol]	ΔG (calcium-saturated) (CaM76–148 (CaM C-domain)) [kcal/mol]	Fold Change = (Kd, Apo)/(Kd, Ca^2+) (CaM76–148 (CaM C-domain))	ΔG (apo) (CaM76–148 (CaM C-domain)) [kcal/mol]	also measured
CaM76–148: CaM C-domain, encompassing residues 76 to 148																					ΔΔG2 (CaM76–148 vs CaM1–148) ([1]; CaM alone): 0.17 ± 0.04 kcal/mol
Ac-SRYGLLIKAFSMTAAETARRTREFR-NH2 [hRyR1(1975–1999)p]	0.69 ± 0.09	-0.69 ± 0.09	1.09 ± 0.23	-1.09 ± 0.23	no significant effect	2.10 ± 0.29	-2.10	-6.62 ± 0.09	~600	-2.91	< 2%	-8.34 ± 0.01	~1300	-4.14	< 2%	0.82 ± 0.15	-0.82	-6.80 ± 0.05	~70	-4.30	ΔΔG2^app = ΔG2^app(CaM + Peptide) − ΔG2 (CaM Alone) (CaM1–148, sites I and II; listed as 1975): -2.10 ± 0.29 kcal/mol; saturation of peptide (anisotropy) (CaM1–80 (CaM N-domain); calcium-saturated (10 mM CaCl2), at ~100 μM CaM1–80): greater than 85%; saturation of peptide (anisotropy) ([3]; calcium-saturated, at ~100 μM): greater than 85%; interaction with apo calmodulin (ITC) in words (full-length CaM): failed to detect an interaction; ΔΔG2^app = ΔG2^app(CaM + Peptide) − ΔG2 (CaM Alone) (CaM1–80, sites I and II; listed as 1975): -0.82 ± 0.15 kcal/mol; saturation of peptide (anisotropy) (CaM76–148 (CaM C-domain); calcium-saturated, at ~100 μM): greater than 85%; abundance of the apo CaM-peptide complex (CaM76–148 (CaM C-domain)): < 2%
Ac-KSKKAVWHKLLSKQRRRAVVACFRMTPLYN-NH2 [hRyR1(3614–3643)p]	3.41 ± 0.14	-3.41 ± 0.14	3.83 ± 0.14	-3.83 ± 0.14	no significant effect	3.78 ± 0.20	-3.78 ± 0.18	-7.59 ± 0.22	~600	-3.81	~ 1%	-12.15	~7000	-7.02 ± 0.25	~ 64%	2.62 ± 0.11	-2.62 ± 0.11	-10.80	~2500	-6.22 ± 0.10	midpoint of calcium titration, C-domain [2, 4]: ~ 100 nM; ΔΔG2^app = ΔG2^app(CaM + Peptide) − ΔG2 (CaM Alone) (CaM1–148, sites I and II; listed as 3614): -3.78 ± 0.20 kcal/mol; effect of the presence of the C-domain on calcium-binding free energy of sites I and II (more favorable by) (CaM1–148, sites I and II; CaM1–148 vs CaM1–80, with 2 eq peptide): 1.16 ± 0.25 kcal/mol; midpoint of calcium titration, N-domain (CaM1–148, sites I and II; [4]): ~ 1 μM; weaker binding of CaM1–80 than CaM1–148 and CaM76–148 (fold) (CaM1–80 (CaM N-domain); abstract, CaM1–80 required calcium): ~ 250 fold; affinity less favorable than that of apo CaM1–148 (factor) (CaM1–80 (CaM N-domain); apo): 220; calcium dependence of interaction in words (CaM1–80 (CaM N-domain); apo and calcium-saturated): requires calcium for association; affinity higher than for hRyR1(1975–1999)p (fold) (CaM1–80 (CaM N-domain); calcium-saturated N-domain): approximately 5 fold; ΔΔG (hRyR1(3614–3643)p − hRyR1(1975–1999)p) (CaM1–80 (CaM N-domain); calcium-saturated N-domain): -0.97 ± 0.24 kcal/mol; Kd [3]: ≤ 1 nM; binding in words ([3]; apo (absence of calcium)): low micromolar Kd; binding in words ([3]; high calcium concentrations): sub-nanomolar Kd; Kd (CaM76–148 (CaM C-domain)): ≤ 10 nM; binds (Ca^2+)2-CaMC more favorably than apo CaMC (CaM76–148 (CaM C-domain); (Ca^2+)2-CaMC vs apo CaMC): ~ 5 kcal/mol; calcium dependence of interaction in words (CaM76–148 (CaM C-domain); apo and calcium-saturated): calcium-independent manner; C-domain fragment affinity more favorable than N-domain fragment (CaM76–148 (CaM C-domain); both in the presence and in the absence of calcium): 2 orders of magnitude; ΔΔG (hRyR1(3614–3643)p − hRyR1(1975–1999)p) (CaM76–148 (CaM C-domain); calcium-saturated C-domain): ≤ -4.00 kcal/mol; abundance of the apo CaM-peptide complex (CaM76–148 (CaM C-domain)): ~ 33%
